Tested on: not given
Assay: not given
Conditions: not given

| SMILES | melting point [°C] |
| --- | --- |
| O=C(Nc1cccc(C(F)(F)F)c1)N1CCc2cc(Oc3ccncc3)ccc21 [Example 19, 5(4-pyridyloxy)-N-(3-trifluoromethyl-phenyl)amino-carbonyl-2,3-dihydroindole] | 171 to 172.5 |
| O=C(Nc1cccc(C(F)(F)F)c1)N1CCCc2cc(Oc3ccncc3)ccc21 [Example 20] | 185.5 to 188 |
| O=C(Nc1ccc(Oc2cc(Cl)ncn2)cc1)Nc1cccc(C(F)(F)F)c1 [Example 21, N-(4-(6-Chloropyrimidin-4-yl)-oxyphenyl)-N′-(3-trifluoromethylphenyl)-urea] | 187.4 to 189.7 |

Target: T1, cytoplasmic kinase domain of human Flt-3 (Homo sapiens, UniProt P36888)
T1 construct: amino acids 563-993 of the cytoplasmic kinase domain of human Flt-3; made in house; host or cells: Sf9 insect cells (baculovirus, donor vector pFbacG01)
T1 sequence (P36888 563-993): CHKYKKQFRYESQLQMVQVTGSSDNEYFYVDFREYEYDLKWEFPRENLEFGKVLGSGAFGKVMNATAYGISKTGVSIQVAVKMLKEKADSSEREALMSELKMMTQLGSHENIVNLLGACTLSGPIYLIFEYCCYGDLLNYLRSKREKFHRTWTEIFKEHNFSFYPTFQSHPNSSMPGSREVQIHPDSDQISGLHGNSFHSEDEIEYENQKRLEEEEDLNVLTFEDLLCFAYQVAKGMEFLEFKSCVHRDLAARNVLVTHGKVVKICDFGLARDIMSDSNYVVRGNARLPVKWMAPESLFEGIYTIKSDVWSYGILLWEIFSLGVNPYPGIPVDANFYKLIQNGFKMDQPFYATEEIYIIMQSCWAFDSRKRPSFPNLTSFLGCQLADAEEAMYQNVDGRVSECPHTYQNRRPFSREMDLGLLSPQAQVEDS
Assay: Flt3 kinase inhibition, GST-Flt-3 filter binding assay
Format: biochemical
Conditions: % inhibition at 10 μM
Protocol: Flt3 kinase inhibition is determined as follows: The baculovirus donor vector pFbacG01 (GIBCO) is used to generate a recombinant baculovirus expressing the amino acid region amino acids 563-993 of the cytoplasmic kinase domain of human Flt-3. The coding sequence for the cytoplasmic domain of Flt-3 is amplified by PCR from human c-DNA libraries (Clontech). The amplified DNA fragments and the pFbacG01 vector are made compatible for ligation by digestion with BamH1 and HindIII. Ligation of these DNA fragments results in the baculovirus donor plasmid Flt-3(1.1). The production of the viruses, the expression of proteins in Sf9 cells and the purification of the GST-fused proteins are performed as follows:
Production of virus: Transfer vector (pFbacG01-Flt-3) containing the Flt-3 kinase domain is transfected into the DH10Bac cell line (GIBCO) and the transfected cells are plated on selective agar plates. Colonies without insertion of the fusion sequence into the viral genome (carried by the bacteria) are blue. Single white colonies are picked and viral DNA (bacmid) is isolated from the bacteria by standard plasmid purification procedures. Sf9 or Sf21 cells (American Type Culture Collection) are then transfected in flasks with the viral DNA using Cellfectin reagent. Determination of small scale protein expression in Sf9 cells: Virus containing media is collected from the transfected cell culture and used for infection to increase its titre. Virus containing media obtained after two rounds of infection is used for large-scale protein expression. For large-scale protein expression 100 cm^2 round tissue culture plates are seeded with 5×10^7 cells/plate and infected with 1 mL of virus-containing media (approx. 5 MOIs). After 3 days the cells are scraped off the plate and centrifuged at 500 rpm for 5 min. Cell pellets from 10-20, 100 cm^2 plates, are resuspended in 50 mL of ice-cold lysis buffer (25 mMTris-HCl, pH 7.5, 2 mM EDTA, 1% NP-40, 1 mM DTT, 1 mM PMSF). The cells are stirred on ice for 15 min and then centrifuged at 5000 rpms for 20 min. Purification of GST-tagged proteins: The centrifuged cell lysate is loaded onto a 2 mL glutathione-sepharose column (Pharmacia) and washed three times with 10 mL of 25 mM Tris-HCl, pH 7.5, 2 mM EDTA, 1 mM DTT, 200 mM NaCl. The GST-tagged protein is then eluted by 10 applications (1 mL each) of 25 mM Tris-HCl, pH 7.5, 10 mM reduced-glutathione, 100 mM NaCl, 1 mM DTT, 10% Glycerol and stored at −70° C. Measurement of enzyme activity: Tyrosine protein kinase assays with purified GST-Flt-3 are carried out in a final volume of 30 μL containing 200-1800 ng of enzyme protein (depending on the specific activity), 20 mM Tris-HCl, pH 7.6, 3 mM MnCl2, 3 mM MgCl2, 1 mM DTT, 10 μM Na3VO4, 3 μg/mL poly(Glu,Tyr) 4:1, 1% DMSO, 8.0 μM ATP and 0.1 μCi [γ^33 P] ATP). The activity is assayed in the presence or absence of inhibitors, by measuring the incorporation of ^33P from [γ^33P] ATP into the poly(Glu,Tyr) substrate. The assay (30 μL) is carried out in 96-well plates at ambient temperature for 20 min under conditions described below and terminated by the addition of 20 μL of 125 mM EDTA. Subsequently, 40 μL of the reaction mixture is transferred onto Immobilon-PVDF membrane (Millipore, Bedford, Mass., USA) previously soaked for 5 min with methanol, rinsed with water, then soaked for 5 min with 0.5% H3PO4 and mounted on vacuum manifold with disconnected vacuum source. After spotting all samples, vacuum is connected and each well rinsed with 200 μL 0.5% H3PO4. Membranes are removed and washed 4× on a shaker with 1.0% H3PO4, once with ethanol. Membranes are counted after drying at ambient temperature, mounting in Packard TopCount 96-well frame, and addition of 10 μL/well of Microscint™ (Packard). IC50 values are calculated by linear regression analysis of the percentage inhibition of each compound in duplicate, at four concentrations (usually 0.01, 0.1,1 and 10 μM). […]

| SMILES | Flt3 (% at 10 μM) [%] |
| --- | --- |
| Cc1ccc(NC(=O)Nc2ccc(Oc3ccncc3)cc2)cc1 [Example 4] | 98 |
| CCc1ccc(NC(=O)N(C)c2ccc(Oc3ccncc3)cc2)cc1 [Example 5] | 64 |
| CN(C(=O)Nc1cccc(C(F)(F)F)c1)c1ccc(Oc2ccncc2)cc1 [Example 6] | 87 |
| CCCc1ccc(NC(=O)N(C)c2ccc(Oc3ccncc3)cc2)cc1 [Example 7] | 67 |
| Cc1ccc(NC(=O)N(C)c2ccc(Oc3ccncc3)cc2)cc1 [Example 8] | 57 |
| O=C(Nc1ccc(Oc2ccncc2)cc1)Nc1ccc(Br)c(C(F)(F)F)c1 [Example 9] | 90 |
| O=C(Nc1ccc(Oc2ccncc2)cc1)Nc1ccc(OCC(F)(F)F)c(C(F)(F)F)c1 [Example 10] | 100 |
| COc1cc(NC(=O)Nc2ccc(Oc3ccncc3)cc2)cc(C(F)(F)F)c1 [Example 11] | 100 |
| CCCc1ccc(NC(=O)Nc2ccc(Cc3ccncc3)cc2)cc1 [Example 12] | 92 |
| CCc1ccc(NC(=O)Nc2ccc(Cc3ccncc3)cc2)cc1 [Example 13] | 95 |
| Cc1ccc(NC(=O)Nc2ccc(Cc3ccncc3)cc2)cc1 [Example 14] | 89 |
| O=C(Nc1ccc(Cc2ccncc2)cc1)Nc1cccc(C(F)(F)F)c1 [Example 15] | 96 |
| CCc1ccc(NC(=O)Cc2ccc(Oc3ccncc3)cc2)cc1 [Example 16, N-(4-pyridin-4-yl-oxy-phenyl)acetyl-(4-ethyl-phenyl)-amide] | 94 |
| Cc1ccc(NC(=O)Cc2ccc(Oc3ccncc3)cc2)cc1 [Example 17] | 92 |
| CCCc1ccc(NC(=O)Cc2ccc(Oc3ccncc3)cc2)cc1 [Example 18] | 88 |
| O=C(Nc1cccc(C(F)(F)F)c1)N1CCc2cc(Oc3ccncc3)ccc21 [Example 19, 5(4-pyridyloxy)-N-(3-trifluoromethyl-phenyl)amino-carbonyl-2,3-dihydroindole] | 63 |
| O=C(Nc1cccc(C(F)(F)F)c1)N1CCCc2cc(Oc3ccncc3)ccc21 [Example 20] | 69 |
| O=C(Nc1ccc(Oc2cc(Cl)ncn2)cc1)Nc1cccc(C(F)(F)F)c1 [Example 21, N-(4-(6-Chloropyrimidin-4-yl)-oxyphenyl)-N′-(3-trifluoromethylphenyl)-urea] | 94 |
| Cc1cc(Oc2ccc(NC(=O)Nc3cccc(C(F)(F)F)c3)cc2)ccn1 [Example 30] | 100 |
| O=C(Nc1ccc(Oc2cc(Nc3ccc(O)cc3)ncn2)cc1)Nc1ccc(OCC(F)(F)F)c(C(F)(F)F)c1 [Example 32] | 100 |

From patent publication US7652022B2, “Diaryl urea derivatives useful for the treatment of protein kinase dependent diseases” (Novartis AG, priority 2002, dated 2010)
